Literature values as cited in patent US12257342B2, “Phenylephrine hydrochloride ready-to-use solution” (Hikma Pharmaceuticals USA Inc., priority 2015, dated 2025).

System: α−1 adrenergic receptor
Details: following an intravenous bolus administration

Structure (SMILES): CNC[C@H](O)c1cccc(O)c1.Cl [Phenylephrine hydrochloride, (−)-m-Hydroxy-α-[(methylamino)methyl]benzyl alcohol hydrochloride]
- onset of blood pressure increase: rapid
- persistence of the blood pressure effect: up to 20 minutes
